These molecules were tested against human σ1 receptor (Homo sapiens, UniProt Q99720) (assay: biochemical).
Type: binding
Set-up: μ and σ1 dual (binding to the σ1 receptor and the μ-opioid receptor expressed as Ki): key to the marks not given beside the values

Chain of human σ1 receptor (Q99720 whole entry): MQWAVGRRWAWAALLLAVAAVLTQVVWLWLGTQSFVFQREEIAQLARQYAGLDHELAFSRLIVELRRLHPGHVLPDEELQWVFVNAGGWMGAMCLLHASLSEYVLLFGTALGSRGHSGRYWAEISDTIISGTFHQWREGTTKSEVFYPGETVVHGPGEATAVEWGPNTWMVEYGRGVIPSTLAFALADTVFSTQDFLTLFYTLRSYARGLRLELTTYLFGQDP

How did the Ki turn out when `CCC(=O)N(CC1(N2CCN(Cc3ccccc3)CC2)CCOCC1)c1ncccc1C(F)(F)F` [Example 59, N-((4-(4-benzylpiperazin-1-yl)tetrahydro-2H-pyran-4-yl)methyl)-N-(3-(trifluoromethyl)pyridin-2-yl)propionamide] was run?
The Ki was under 500 nM.

With `CCC(=O)N(CC1(N2CCN(Cc3ccccc3)CC2)CCOCC1)c1ccc(C(F)(F)F)nc1` [Example 11, N-((4-(4-benzylpiperazin-1-yl)tetrahydro-2H-pyran-4-yl)methyl)-N-(6-(trifluoromethyl)pyridin-3-yl)propionamide] as the molecule, how does the “μ and σ1 dual (binding to the σ1 receptor and the μ-opioid receptor expressed as Ki)” value (“μ and σ1 dual” below) read?
Its value is “++”.

For `CCC(=O)N(CC1(N2CCN(Cc3ccccc3)CC2)CCOCC1)c1ccccn1` [Example 56, N-((4-(4-benzylpiperazin-1-yl)tetrahydro-2H-pyran-4-yl)methyl)-N-(pyridin-2-yl)propionamide], which Ki is on record?
The Ki was under 500 nM.

`CCC(=O)N(CC1(N2CCN(Cc3ccccn3)CC2)CC1)c1ccccc1` [Example 114, N-phenyl-N-((1-(4-(pyridin-2-ylmethyl)piperazin-1-yl)cyclopropyl)methyl)propionamide] was tested. Which Ki did it give?
Its Ki is under 500 nM.

With `CCC(=O)N(CC1(N2CCN(Cc3ccccc3)CC2)CCOCC1)c1ccccc1Cl` [Example 2, N-((4-(4-benzylpiperazin-1-yl)tetrahydro-2H-pyran-4-yl)methyl)-N-(2-chlorophenyl)propionamide] as the molecule, how does the Ki read?
The Ki was under 100 nM.

Which “μ and σ1 dual” value does the source give for `CCC(=O)N(CC1(N2CCN(CC(C)C)CC2)CCOCC1)c1ncccc1F` [Example 158, N-(3-fluoropyridin-2-yl)-N-((4-(4-isobutylpiperazin-1-yl)tetrahydro-2H-pyran-4-yl)methyl)propionamide] here?
The value was “++”.

Which Ki does the source give for `CCC(=O)N(CC1(N2CCN(Cc3ccc(F)cc3)CC2)CCOCC1)c1ccccn1` [Example 111, N-((4-(4-(4-fluorobenzyl)piperazin-1-yl)tetrahydro-2H-pyran-4-yl)methyl)-N-(pyridin-2-yl)propionamide] here?
Its Ki is under 500 nM.

Which Ki does the source give for `CCC(=O)N(CC1(N2CCN(CCC(C)C)CC2)CCOC2(CCCC2)C1)c1cccc(C(F)(F)F)n1` (stereo not shown) [Example 173, N-((9-(4-isopentylpiperazin-1-yl)-6-oxaspiro[4.5]decan-9-yl)methyl)-N-(6-(trifluoromethyl)pyridin-2-yl)propionamide] here?
Its Ki is under 500 nM.

How did the “μ and σ1 dual” value turn out when `CCC(=O)N(CC(C)(C)N1CCN(CCc2ccccc2F)CC1)c1ncccc1F` [Example 69, N-(2-(4-(2-fluorophenethyl)piperazin-1-yl)-2-methylpropyl)-N-(3-fluoropyridin-2-yl)propionamide] was run?
Its value is “++”.

With `O=C(c1cccs1)N(CC1(N2CCN(Cc3ccccc3)CC2)CCOCC1)c1ccccn1` [Example 38, N-((4-(4-benzylpiperazin-1-yl)tetrahydro-2H-pyran-4-yl)methyl)-N-(pyridin-2-yl)thiophene-2-carboxamide] as the molecule, how does the “μ and σ1 dual” value read?
Its value is “++”.

Which “μ and σ1 dual” value does the source give for `CCNC(=O)N(CC(C)(C)N1CCN(Cc2ccccc2)CC1)c1ccccc1` [Example 48, 1-(2-(4-benzylpiperazin-1-yl)-2-methylpropyl)-3-ethyl-1-phenylurea] here?
Its value is “++”.

Which Ki does the source give for `CCC(=O)N(CC1(N2CCN(CC(C)C)CC2)CCC1)c1cccc(C(F)(F)F)n1` [Example 203, N-((1-(4-isobutylpiperazin-1-yl)cyclobutyl)methyl)-N-(6-(trifluoromethyl)pyridin-2-yl)propionamide] here?
Its Ki is under 500 nM.

With `CCC(=O)N(CC1(N2CCN(CCC(C)C)CC2)CCOC(C)(C)C1)c1cccc(C(F)(F)F)n1` (stereo not shown) [Example 159, N-((4-(4-isopentylpiperazin-1-yl)-2,2-dimethyltetrahydro-2H-pyran-4-yl)methyl)-N-(6-(trifluoromethyl)pyridin-2-yl)propionamide] as the molecule, how does the Ki read?
The Ki was under 100 nM.

Which Ki does the source give for `CCC(=O)N(CC1(N2CCN(C(C)CC)CC2)CCOCC1)c1ccccn1` (stereo not shown) [Example 154, N-((4-(4-sec-butylpiperazin-1-yl)tetrahydro-2H-pyran-4-yl)methyl)-N-(pyridin-2-yl)propionamide] here?
Its Ki is over 500 nM.

`CCC(=O)N(CC1(N2CCN(Cc3ccccc3)CC2)CCOC(C)(C)C1)c1ncccc1C#N` (stereo not shown) [Example 68, N-((4-(4-benzylpiperazin-1-yl)-2,2-dimethyltetrahydro-2H-pyran-4-yl)methyl)-N-(3-cyanopyridin-2-yl)propionamide] was tested. Which “μ and σ1 dual” value did it give?
The value was “++”.

For `CCC(=O)N(CC1(N2CCN(CC(C)C)CC2)CC1)c1cccc(C(F)(F)F)n1` [Example 123, N-((1-(4-isobutylpiperazin-1-yl)cyclopropyl)methyl)-N-(6-(trifluoromethyl)pyridin-2-yl)propionamide], which Ki is on record?
The Ki was under 100 nM.

With `CCC(=O)N(CC1(N2CCN(CC(C)C)CC2)CCOCC1)c1ncccc1C(F)(F)F` [Example 63, N-((4-(4-isobutylpiperazin-1-yl)tetrahydro-2H-pyran-4-yl)methyl)-N-(3-(trifluoromethyl)pyridin-2-yl)propionamide] as the molecule, how does the “μ and σ1 dual” value read?
Its value is “++”.

Which Ki does the source give for `CCC(=O)N(CC1(N2CCN(CC(C)C)CC2)CCOC(C)(C)C1)c1ccccn1` (stereo not shown) [Example 166, N-((4-(4-isobutylpiperazin-1-yl)-2,2-dimethyltetrahydro-2H-pyran-4-yl)methyl)-N-(pyridin-2-yl)propionamide] here?
The Ki was over 500 nM.

`CCC(=O)N(CC1(N2CCN(CCC(C)C)CC2)CC1)c1cccc(C(F)(F)F)n1` [Example 124, N-((1-(4-isopentylpiperazin-1-yl)cyclopropyl)methyl)-N-(6-(trifluoromethyl)pyridin-2-yl)propionamide] was tested. Which Ki did it give?
Its Ki is under 100 nM.

With `CCC(=O)N(CC(C)(C)N1CCN(CCc2ncccc2F)CC1)c1ccccn1` [Example 70, N-(2-(4-(2-(3-fluoropyridin-2-yl)ethyl)piperazin-1-yl)-2-methylpropyl)-N-(pyridin-2-yl)propionamide] as the molecule, how does the “μ and σ1 dual” value read?
The value was “++”.

`CCC(=O)N(CC1(N2CCN(Cc3ccc(OC)nc3)CC2)CCOCC1)c1ccccc1` [Example 109, N-((4-(4-((6-methoxypyridin-3-yl)methyl)piperazin-1-yl)tetrahydro-2H-pyran-4-yl)methyl)-N-phenylpropionamide] was tested. Which Ki did it give?
The Ki was under 500 nM.

For `CCC(=O)N(CC1(N2CCN(CC(C)C)CC2)CCOC(C)(C)C1)c1cccc(C#N)n1` (stereo not shown) [Example 87, N-(6-cyanopyridin-2-yl)-N-((4-(4-isobutylpiperazin-1-yl)-2,2-dimethyltetrahydro-2H-pyran-4-yl)methyl)propionamide], which Ki is on record?
The Ki was over 500 nM.

How did the “μ and σ1 dual” value turn out when `CCC(=O)N(CC1(N2CCN(Cc3ccc(NC(C)=O)cc3)CC2)CC1)c1ccccc1` [Example 115, N-((1-(4-(4-acetamidobenzyl)piperazin-1-yl)cyclopropyl)methyl)-N-phenylpropionamide] was run?
The value was “++”.

`CCC(=O)N(CC1(N2CCN(Cc3ccccc3F)CC2)CC1)c1ccccc1` [Example 118, N-((1-(4-(2-fluorobenzyl)piperazin-1-yl)cyclopropyl)methyl)-N-phenylpropionamide] was tested. Which Ki did it give?
The Ki was under 100 nM.

How did the Ki turn out when `CCC(=O)N(CC1(N2CCN(Cc3ccccc3)CC2)CCOCC1)c1ccc(F)cc1` [Example 81, N-((4-(4-benzylpiperazin-1-yl)tetrahydro-2H-pyran-4-yl)methyl)-N-(4-fluorophenyl)propionamide] was run?
Its Ki is under 500 nM.
